Laboratory results: PubChem BioAssay (NCI)
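Method: 48-hour compound exposure of cells in 96-well plates, five concentrations, linear interpolation of endpoints. TGI: concentration producing complete growth inhibition.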

Experiments:
Test in all cases: NCI tumour cell line growth inhibition, 48 h
[1] = test system: 786-0 renal
[2] = test system: CCRF-CEM leukemia
[3] = test system: EKVX NSCLC
[4] = test system: HS 578T breast
[5] = test system: HT29 colon
[6] = test system: KM12 colon
[7] = test system: NCI-H460 lung
[8] = test system: NCI/ADR-RES ovarian
[9] = test system: RPMI-8226 leukemia
[10] = test system: SF-539 CNS
[11] = test system: SW-620 colon
[12] = test system: T-47D breast
[13] = test system: UO-31 renal

Cn1c2ccccc2c2c3c(c4c5ccccc5n(C)c4c21)C(=O)NC3=O
TGI [1]: 27.5 µM | TGI [2]: > 100 µM | TGI [3]: > 100 µM | TGI [4]: > 72.6 µM | TGI [5]: > 100 µM | TGI [6]: > 100 µM | TGI [7]: 70.1 µM | TGI [8]: > 100 µM | TGI [9]: > 100 µM | TGI [10]: 35.4 µM | TGI [11]: > 100 µM | TGI [12]: > 100 µM | TGI [13]: > 100 µM

O=[N+]([O-])c1ccc2c(c1)N([O-])C1(CCCCC1)[N+]2=O
TGI [1]: 24.6 µM | TGI [2]: > 100 µM | TGI [3]: 29.6 µM | TGI [4]: 47.9 µM | TGI [5]: 43.3 µM | TGI [6]: 42.4 µM | TGI [7]: 37 µM | TGI [8]: 77.7 µM | TGI [9]: 65 µM | TGI [10]: 33.6 µM | TGI [11]: 56 µM | TGI [12]: 64.7 µM | TGI [13]: 33.7 µM

CCCC(CCC(N)=O)(CCC(N)=O)[N+](=O)[O-]
TGI [1]: > 100 µM | TGI [2]: > 100 µM | TGI [3]: > 100 µM | TGI [4]: > 100 µM | TGI [5]: > 100 µM | TGI [6]: > 100 µM | TGI [7]: > 100 µM | TGI [8]: > 100 µM | TGI [9]: > 100 µM | TGI [10]: > 100 µM | TGI [11]: > 100 µM | TGI [12]: > 100 µM | TGI [13]: > 100 µM

Cc1cc2/c(=C\c3ccc(N(C)C)cc3)c3ccccc3n2[n+]1C
TGI [1]: 8.77 µM | TGI [2]: > 100 µM | TGI [3]: 8.79 µM | TGI [4]: 8.95 µM | TGI [5]: 9.03 µM | TGI [6]: 5.54 µM | TGI [7]: 2.02 µM | TGI [8]: > 100 µM | TGI [9]: 0.738 µM | TGI [10]: 5.61 µM | TGI [11]: > 32 µM | TGI [12]: 3.76 µM | TGI [13]: 15.3 µM

O=C(/C=C/c1cccc(Oc2ccccc2)c1)NCc1ccc(C(=O)NCc2ccccc2)cc1
TGI [1]: > 100 µM | TGI [2]: > 100 µM | TGI [3]: > 100 µM | TGI [4]: > 100 µM | TGI [5]: > 100 µM | TGI [6]: > 100 µM | TGI [7]: > 100 µM | TGI [8]: > 100 µM | TGI [9]: > 100 µM | TGI [10]: > 100 µM | TGI [11]: > 100 µM | TGI [12]: > 100 µM | TGI [13]: > 100 µM

COc1ccc(-n2c(N)c(C#N)[nH]c2=O)cc1
TGI [1]: > 10 µM | TGI [2]: > 10 µM | TGI [3]: > 10 µM | TGI [4]: > 10 µM | TGI [5]: > 10 µM | TGI [6]: > 10 µM | TGI [7]: > 10 µM | TGI [8]: > 10 µM | TGI [9]: > 10 µM | TGI [10]: > 10 µM | TGI [11]: > 10 µM | TGI [12]: > 10 µM | TGI [13]: > 10 µM

CCN(CC)CCCNc1ccc2nc(C)n3c4ccc(O)cc4c(=O)c1c23
TGI [1]: 16.8 µM | TGI [2]: 46.7 µM | TGI [3]: 24.4 µM | TGI [4]: 29 µM | TGI [5]: 14.2 µM | TGI [6]: 17.4 µM | TGI [7]: 12.1 µM | TGI [8]: 29.6 µM | TGI [9]: 10.8 µM | TGI [10]: 22.7 µM | TGI [11]: 14.9 µM | TGI [12]: 31.4 µM | TGI [13]: 19.3 µM
